The species entered for test [1] is Homo sapiens. In words: In vitro percent inhibition of platelet activating factor (PAF) production in human PMN at 10 uM. The test is classed as functional.
Test [2] in a line: In vitro inhibition of PGE-2 production in murine resident peritoneal macrophage. The test is classed as functional. As to conditions: Mus musculus; call rule not given here.
The target in test [3] is T1, Phospholipase A2, membrane associated (Homo sapiens, UniProt P14555).
T1 sequence (P14555 whole entry): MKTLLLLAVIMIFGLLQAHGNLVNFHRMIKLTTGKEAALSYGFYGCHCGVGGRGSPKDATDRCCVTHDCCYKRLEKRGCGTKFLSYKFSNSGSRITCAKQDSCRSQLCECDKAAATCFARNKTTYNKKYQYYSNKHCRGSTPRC
In words: In vitro inhibitory activity against human synovial fluid phospholipase A2 (HSF-PLA2) by monitoring hydrolysis of [3H]arachidonic acid labeled Escherichia coli.

Test [4] is filed under the species Homo sapiens. Kind of test: In vitro inhibition of LTB4 production in human PMN. The test is classed as functional.
The species entered for test [5] is Homo sapiens. Kind of test: In vitro inhibition of platelet activating factor (PAF) production in human PMN. The test is classed as functional.
The target of test [6] is T2, Phospholipase A2, membrane associated (Homo sapiens) (UniProt P14555).
T2 sequence (whole entry): T1 sequence (P14555 whole entry)
In words: In vitro percent inhibition against Phospholipase A2 (HSF-PLA2) by monitoring hydrolysis of [3H]- arachidonic acid labeled Escherichia coli at 50 uM.

The species named for test [7] is Homo sapiens. In words: In vitro inhibition of platelet activating factor (PAF) production in human PMN at 50 uM; not active at 50 uM. Format: functional.
Test [8] is filed under the species Homo sapiens. In words: In vitro inhibition of LTB4 production in human PMN at 50 uM; not active at 50 uM. Format: functional.
Test [9] concerns the target T1, Phospholipase A2, membrane associated. Kind of test: In vitro inhibition tested against Phospholipase A2 (HSF-PLA2) by monitoring hydrolysis of [3H]- arachidonic acid labeled Escherichia coli at 50 uM.

This is an account of results in ChEMBL document CHEMBL1127940, “Analogs of the marine natural product scalaradial lacking the ,-unsaturated aldehyde: effects on human synovial fluid phospholipase A2 and macrophage lipid mediator production” (Bioorg Med Chem Lett, 1994).

With `CC(=O)O[C@H]1CC2[C@@]3(C)CCCC(C)(C)C3CC[C@@]2(C)C2CC=C(C(=O)O)[C@H](C(=O)O)[C@]21C` (some centres not stated), in the test listed under Homo sapiens [1], the inhibition (commonly how much of the control response was suppressed) at 10 µM was 60%. Further, the half-maximal inhibitory concentration (IC50) (usually the point on the concentration scale where inhibition reaches its midpoint) worked out at 200 nM in [2] and 4800 nM in test [3].

Consider `CC(=O)O[C@H]1C[C@@H]2[C@@]3(C)CCCC(C)(C)[C@@H]3CC[C@@]2(C)[C@@H]2CC=C(C=O)[C@H](C=O)[C@@]12C` [SCALARADIAL], for which the IC50 in the test listed under Homo sapiens [4] worked out at 1000 nM; in the test filed under Homo sapiens [5] it was 1000 nM; in [2] it was 40 nM; in [3], 15 nM.

`CC1(C)CCC[C@@]2(C)C1CC[C@]1(C)C2C[C@H](O)[C@@]2(C)C1CC=C(CO)[C@@H]2CO` (some centres not stated) displayed an inhibition in test [6] of 21%. Moreover, the concentration for half-maximal inhibition (IC50) entry in the test filed under Homo sapiens [7] is “Not Active”; in the test filed under Homo sapiens [8] it was “Not Active”; in [9], more than 50000 nM; in test [2], 300 nM.
